From patent publication US20220411880A1, “METHODS AND COMPOSITIONS FOR DIAGNOSING AND TREATING CHRONIC MYELOMONOCYTIC LEUKEMIA (CMML)” (INSERM (INSTITUT NATIONAL DE LA SANTÉET DE LA RECHERCHE …, priority 2019, published 2022)

How the values were obtained:
[1] = tested on: ABCA1 mutant-transduced Tet2 deficient BM cells; experiment: [3H]-thymidine proliferation assay in ex vivo BM liquid culture; type: cell-based, mouse; details: FIG. 5E
Source text: FIG. 5. Cholesterol accumulation couples ABCA1 invalidation and Tet2 deficiency to IL-3 receptor β signaling hypersensitivity. (A-D) Quantification of BODIPY staining by flow cytometry expressed as mean fluorescence intensity (MFI) as a surrogate of cellular cholesterol neutral lipid per cell in BM hematopoietic stem (A and C) and progenitor (B and D) cells (i.e, LSKs, MEPs, CMPs and GMPs) of recipient mice transplanted with Mx1-Cre^+, Mx1-Cre^+ Abca1^fl/fl, MX1-Cre^+Tet2^fl/fl and Mx1-Cre^+Tet2^fl/flAbca1^fl/fl BM (A and B) or control and Mx1-Cre^+Tet2^fl/fl BM expressing empty, ABCA1-WT or ABCA1 mutants (C and D). (E) Expression of mRNA was normalized to m36B4. mRNA levels were expressed as percentage over WT whole BM cells. Proliferation rates were determined after 2 h [^3H]-thymidine pulse labeling in BM cells from empty, ABCA1-WT and ABCA1 mutants-transduced animals on a Tet2 deficient background that were grown for 72 h in liquid culture in the presence or absence of 6 ng/mL IL-3 and 2 ng/mL GM-CSF and the indicated chemical compounds.
FIG. 6. […] (A) Proliferation rates were determined after 2 h [^3H]-thymidine pulse labeling in BM cells from empty, ABCA1-WT and ABCA1 mutants-transduced animals on a Tet2 deficient background that were grown for 72 h in liquid culture in the presence or absence of 50 μg/mL PEG-HDL. […]

[2] = tested on: ABCA1 mutant-transduced Tet2 deficient BM cells; experiment: cell viability of treated ex vivo BM cultures; type: cell-based, mouse; details: same treated BM cultures; data not shown
Description: Briefly, femurs were flushed with ice-cold PBS and centrifugated for 5 min at 1,000 rpm to extract BM cells. After red blood cell lysis, over 90% of BM cells were CD45-positive cells of hematopoietic origin (Westerterp et al., 2012). Primary BM cells were resuspended in IMDM (Gibco) containing 10% FCS (STEMCELL Technologies) and cultured for 1 h in tissue culture flasks to remove adherent cells, including macrophages. The transduction rate of control, ABCA1-WT and ABCA 1-mutant lentiviral particles was determined after BM transplantation as described above. Suspended cells were then normalized to the same concentration and cultured for 72 h in the presence of 6 ng/mL IL-3 and 2 ng/mL GM-CSF (R&D Systems). In some experiments, the cyclodextrin (Sigma) was used at the final concentration of 5 mM, tempol (EMD Millipore) at 4 mM and anti-IL3Rbeta AF549 antibody (R&D Systems) at 50 μg/mL.

CC1(C)CC(O)CC(C)(C)N1[O] [tempol]
basal proliferation and IL-3/GM-CSF hypersensitivity of ABCA1 mutants-transduced Tet2 deficient BM cells ([1]; tempol 4 mM, 72 h culture with or without 6 ng/mL IL-3 and 2 ng/mL GM-CSF): prevented the basal proliferation and IL-3/GM-CSF hypersensitivity

cyclodextrin
proliferation of ABCA1 mutant-transduced Tet2 deficient BM cells ([1]; 72 h culture in presence or absence of IL-3 and GM-CSF, cyclodextrin 5 mM, antibody 50 μg/mL, effect similar to ABCA1-WT overexpression): prevented the proliferation | cell viability [2]: without affecting cell viability
